Tested on: patients with negative symptoms of schizophrenia
Assay: Integrated analysis of Studies #1 and #2 (pooled ITT): PANSS-derived scores (NSFS, total, positive and negative subscales), DB, OL and whole study
Assay type: in vivo, human
Parameters: key to NSFS Score change from Baseline, Median: change from Baseline in PANSS NSFS points; higher score = more severe
Settings: for NSFS Score change from Baseline, LS mean (SE) / NSFS Score change from Baseline, Mean (SD) / NSFS Score change from Baseline, Median / NSFS Score, Difference (95% CI) in LS mean (vs placebo) / PANSS Negative Subscale Score change from Baseline, LS mean (SE) / PANSS Negative Subscale Score change from Baseline, Mean (SD) / PANSS Negative Subscale Score change from Baseline, Median / PANSS Negative Subscale Score, Difference (95% CI) in LS mean (vs placebo) / PANSS Total Score change from Baseline, LS mean (SE) / PANSS Total Score change from Baseline, Mean (SD) / PANSS Total Score change from Baseline, Median / PANSS Total Score, Difference (95% CI) in LS mean (vs placebo): DB
Description: The primary integrated analysis of the efficacy of Roluperidone compared with placebo for the treatment of negative symptoms of schizophrenia is based on the change from Baseline in the PANSS Marder's negative symptoms factor score (in this document referred to as NSFS) to Week 12. Efficacy is also supported by the analysis of change from Baseline in the PSP Total score and the CGI-S to Week 12.
The PANSS was assessed at the time points described in Table 4.
The PANSS-derived endpoints used in these studies and the integrated analyses are described in Table 5A and a summary of the individual PANSS items used by physicians and clinicians to measure the severity of the symptoms in a schizophrenia patient is provided in Table 5B. The scale is divided into three parts, a positive scale, which provides a “PANSS positive subscore”, a negative scale, which provides a “PANSS negative subscore”, and general psychopathology scale. The sum of these three parts provides a PANSS total score, which ranges from 30 to 210 (where higher scores indicate more severe symptoms). (See Kay, S. R., et al. “The positive and negative syndrome scale (PANSS) for schizophrenia,” Schizophr Bulletin, 13(2), 261-276 (1987) and Gopal, S., et al. “Improvement of Negative Symptoms in Schizophrenia with Paliperidone Palmitate 1-Month and 3-Month Long-Acting Injectables: Results from a Phase 3 Non-Inferiority Study” Neuropsychiatric Disease and Treatment, 681-690, DOI: 10.2147/NDT.5226296, both of which are incorporated by reference.)
The Efficacy data from Study Nos. 1 and 2 were pooled. The majority of patients in the pooled ITT population completed the DB period (502 patients overall, 66.3%), with similar rates in each treatment group (placebo: 69.8%, 32 mg Roluperidone: 65.3%, and 64 mg Roluperidone: 63.8%) (Table 12). The majority (62.7%) of those who completed the DB period entered the OL period. The most common reason for discontinuation during the DB period among patients overall was withdrawal of consent (15.6%), followed by adverse events (7.3%) and lack of efficacy (5.4%) (Table 12). […] Approximately twice as many patients in the Roluperidone groups (32 mg: 8.5%; 64 mg: 9.1%) discontinued due to adverse events compared with patients in the placebo group (4.3%). More patients in the placebo group discontinued due to lack of efficacy (6.7%) than in the Roluperidone groups (32 mg: 4.4%; 64 mg: 5.1%). The low number of patients who discontinued due to lack of efficacy or withdrawal of consent probably reflects a low level of worsening of positive symptoms.
The integrated analysis supporting the efficacy of Roluperidone as a treatment for the negative symptoms of schizophrenia in adults is presented below.

Substance: 1H-Isoindol-1-one,2-[ [1-[2-(4-fluorophenyl)-2-oxoethyl]-4-piperidinyl]methyl]-2,3-dihydro-, hydrochloride, hydrate (1:1:2) [Roluperidone]
- Mean NSFS score improvements, persistence in OL period (32 mg and 64 mg groups, OL period incl. 2 weeks after end of treatment, pooled): sustained and continued during the OL period
- NSFS Score change from Baseline, LS mean (SE) (32 mg, Week 2, pooled ITT): −1.1 (0.15)
- NSFS Score change from Baseline, Mean (SD) (32 mg, Week 2, pooled ITT): −1.1 (2.15)
- NSFS Score change from Baseline, Median (32 mg, Week 2, pooled ITT): −1.0
- NSFS Score, Difference (95% CI) in LS mean (vs placebo) (32 mg, Week 2, pooled ITT): −0.2
- PANSS Negative Subscale Score change from Baseline, LS mean (SE) (32 mg, Week 2, pooled ITT): −1.2 (0.14)
- PANSS Negative Subscale Score change from Baseline, Mean (SD) (32 mg, Week 2, pooled ITT): −1.2 (2.11)
- PANSS Negative Subscale Score change from Baseline, Median (32 mg, Week 2, pooled ITT): −1.0
- PANSS Negative Subscale Score, Difference (95% CI) in LS mean (vs placebo) (32 mg, Week 2, pooled ITT): −0.1
- PANSS Total Score change from Baseline, LS mean (SE) (32 mg, Week 2, pooled ITT): −1.7 (0.44)
- PANSS Total Score change from Baseline, Mean (SD) (32 mg, Week 2, pooled ITT): −1.8 (6.62)
- PANSS Total Score change from Baseline, Median (32 mg, Week 2, pooled ITT): −2.0
- PANSS Total Score, Difference (95% CI) in LS mean (vs placebo) (32 mg, Week 2, pooled ITT): −0.4
- PANSS Positive Subscale Score change from Baseline, LS mean (SE) (32 mg, Week 2, pooled ITT): 0.3 (0.17)
- PANSS Positive Subscale Score change from Baseline, Mean (SD) (32 mg, Week 2, pooled ITT): 0.2 (2.71)
- PANSS Positive Subscale Score change from Baseline, Median (32 mg, Week 2, pooled ITT): 0.0
- PANSS Positive Subscale Score, Difference (95% CI) in LS mean (vs placebo) (32 mg, Week 2, pooled ITT): 0.3
- NSFS Score change from Baseline, LS mean (SE) (32 mg, Week 4, pooled ITT): −2.0 (0.19)
- NSFS Score change from Baseline, Mean (SD) (32 mg, Week 4, pooled ITT): −2.2 (2.53)
- NSFS Score change from Baseline, Median (32 mg, Week 4, pooled ITT): −2.0
- NSFS Score, Difference (95% CI) in LS mean (vs placebo) (32 mg, Week 4, pooled ITT): −0.7
- PANSS Negative Subscale Score change from Baseline, LS mean (SE) (32 mg, Week 4, pooled ITT): −2.1 (0.19)
- PANSS Negative Subscale Score change from Baseline, Mean (SD) (32 mg, Week 4, pooled ITT): −2.3 (2.67)
- PANSS Negative Subscale Score change from Baseline, Median (32 mg, Week 4, pooled ITT): −2.0
- PANSS Negative Subscale Score, Difference (95% CI) in LS mean (vs placebo) (32 mg, Week 4, pooled ITT): −0.6
- PANSS Total Score change from Baseline, LS mean (SE) (32 mg, Week 4, pooled ITT): −3.6 (0.53)
- PANSS Total Score change from Baseline, Mean (SD) (32 mg, Week 4, pooled ITT): −4.4 (7.09)
- PANSS Total Score change from Baseline, Median (32 mg, Week 4, pooled ITT): −4.0
- PANSS Total Score, Difference (95% CI) in LS mean (vs placebo) (32 mg, Week 4, pooled ITT): −1.6
- PANSS Positive Subscale Score change from Baseline, LS mean (SE) (32 mg, Week 4, pooled ITT): −0.1 (0.18)
- PANSS Positive Subscale Score change from Baseline, Mean (SD) (32 mg, Week 4, pooled ITT): −0.4 (2.49)
- PANSS Positive Subscale Score change from Baseline, Median (32 mg, Week 4, pooled ITT): 0.0
- PANSS Positive Subscale Score, Difference (95% CI) in LS mean (vs placebo) (32 mg, Week 4, pooled ITT): −0.3
- NSFS Score change from Baseline, LS mean (SE) (32 mg, Week 8, pooled ITT): −3.0 (0.23)
- NSFS Score change from Baseline, Mean (SD) (32 mg, Week 8, pooled ITT): −3.2 (3.21)
- NSFS Score change from Baseline, Median (32 mg, Week 8, pooled ITT): −3.0
- NSFS Score, Difference (95% CI) in LS mean (vs placebo) (32 mg, Week 8, pooled ITT): −0.8
- PANSS Negative Subscale Score change from Baseline, LS mean (SE) (32 mg, Week 8, pooled ITT): −3.1 (0.24)
- PANSS Negative Subscale Score change from Baseline, Mean (SD) (32 mg, Week 8, pooled ITT): −3.2 (3.46)
- PANSS Negative Subscale Score change from Baseline, Median (32 mg, Week 8, pooled ITT): −3.0
- PANSS Negative Subscale Score, Difference (95% CI) in LS mean (vs placebo) (32 mg, Week 8, pooled ITT): −0.7
- PANSS Total Score change from Baseline, LS mean (SE) (32 mg, Week 8, pooled ITT): −4.9 (0.66)
- PANSS Total Score change from Baseline, Mean (SD) (32 mg, Week 8, pooled ITT): −6.2 (7.89)
- PANSS Total Score change from Baseline, Median (32 mg, Week 8, pooled ITT): −6.0
- PANSS Total Score, Difference (95% CI) in LS mean (vs placebo) (32 mg, Week 8, pooled ITT): −1.7
- PANSS Positive Subscale Score change from Baseline, LS mean (SE) (32 mg, Week 8, pooled ITT): −0.1 (0.20)
- PANSS Positive Subscale Score change from Baseline, Mean (SD) (32 mg, Week 8, pooled ITT): −0.4 (2.50)
- PANSS Positive Subscale Score change from Baseline, Median (32 mg, Week 8, pooled ITT): 0.0
- PANSS Positive Subscale Score, Difference (95% CI) in LS mean (vs placebo) (32 mg, Week 8, pooled ITT): −0.3
- NSFS Score change from Baseline, LS mean (SE) (32 mg, Week 12, pooled ITT): −3.5 (0.26)
- NSFS Score change from Baseline, Mean (SD) (32 mg, Week 12, pooled ITT): −3.6 (3.08)
- NSFS Score change from Baseline, Median (32 mg, Week 12, pooled ITT): −4.0
- NSFS Score, Difference (95% CI) in LS mean (vs placebo) (32 mg, Week 12, pooled ITT): −0.8
- PANSS Negative Subscale Score change from Baseline, LS mean (SE) (32 mg, Week 12, pooled ITT): −3.6 (0.27)
- PANSS Negative Subscale Score change from Baseline, Mean (SD) (32 mg, Week 12, pooled ITT): −3.6 (3.37)
- PANSS Negative Subscale Score change from Baseline, Median (32 mg, Week 12, pooled ITT): −3.0
- PANSS Negative Subscale Score, Difference (95% CI) in LS mean (vs placebo) (32 mg, Week 12, pooled ITT): −0.7
- PANSS Total Score change from Baseline, LS mean (SE) (32 mg, Week 12, pooled ITT): −5.5 (0.71)
- PANSS Total Score change from Baseline, Mean (SD) (32 mg, Week 12, pooled ITT): −6.9 (7.77)
- PANSS Total Score change from Baseline, Median (32 mg, Week 12, pooled ITT): −7.0
- PANSS Total Score, Difference (95% CI) in LS mean (vs placebo) (32 mg, Week 12, pooled ITT): −1.9
- NSFS Emotional Experience Score, Change from Baseline (LS Means [SEM]) (32 mg, Week 12, ITT): −1.3 (0.13)
- NSFS Emotional Expression Score, Change from Baseline (LS Means [SEM]) (32 mg, Week 12, ITT): −2.2 (0.16)
- NSFS, Change from Baseline (LS Means [SEM]) (32 mg, Week 12, ITT): −3.5 (0.26)
- PANSS General Psychopathology Subscale, Change from Baseline (LS Means [SEM]) (32 mg, Week 12, ITT): −2.0 (0.37)
- PANSS Negative Symptoms Subscale, Change from Baseline (LS Means [SEM]) (32 mg, Week 12, ITT): −3.6 (0.27)
- PANSS Positive Symptoms Subscale, Change from Baseline (LS Means [SEM]) (32 mg, Week 12, ITT): −0.1 (0.21)
- PANSS Total Score, Change from Baseline (LS Means [SEM]) (32 mg, Week 12, ITT): −5.5 (0.71)
- Patients with high improvement in NSFS (magnitude of change >8) (32 mg, Week 12, pooled): 5%
- Patients with moderate improvement in NSFS (magnitude of change 6-8) (32 mg, Week 12, pooled): 18%
- Patients with moderate or high improvement in NSFS, total (32 mg, Week 12, pooled): 23%
- NSFS, LS mean decrease from Baseline compared with placebo (32 mg, Week 12, pooled ITT): −3.5
- PANSS Positive Subscale Score change from Baseline, LS mean (SE) (32 mg, Week 12, pooled ITT): −0.1 (0.21)
- PANSS Positive Subscale Score change from Baseline, Mean (SD) (32 mg, Week 12, pooled ITT): −0.6(2.37)
- PANSS Positive Subscale Score change from Baseline, Median (32 mg, Week 12, pooled ITT): 0.0
- PANSS Positive Subscale Score, Difference (95% CI) in LS mean (vs placebo) (32 mg, Week 12, pooled ITT): −0.3
- PANSS negative subscale score, LS mean change from Baseline compared with placebo (32 mg, Week 12, pooled ITT): −0.7

Source: patent US20230255953A1, “USE OF ROLUPERIDONE IN PREVENTING RELAPSE IN SCHIZOPHRENIA PATIENTS” (Minerva Neurosciences, Inc., priority 2022, published 2023)
